Data: patent US11160798B2, “Neuroprotective CB2 receptor agonists” (THE CLEVELAND CLINIC FOUNDATION, priority 2012, dated 2021)
“Also recorded” adds a separate entry of the source.

Key:
CA1 neurons = assay: Long-term potentiation (LTP) in hippocampal CA1 slices; type: in vivo, rat; details: for average LTP: Aβ+MDA7 group (15 mg/kg i.p. 14 days), n=9
Description: (§1) Animals were divided into several groups ([…]). The Aβ1-40 group received bilateral intracerebral microinjection of Aβ1-40 fibrils once and saline intraperitoneally (i.p.) daily for 14 days. The Aβ1-40+MDA7 group received bilateral intracerebral microinjection of Aβ1-40 fibrils once and 15 mg/kg MDA7 i.p. daily for 14 days. Other cohorts received smaller doses of MDA7 (5 mg/kg or 1.5 mg/kg) i.p. daily for 14 days to determine the dose-response characteristics for MDA7. In other groups, AM630 (a CB2 antagonist) 5 mg/kg i.p. was administered daily for 14 days either alone (Aβ1-40+AM630 group) or 15 min prior to MDA7 (15 mg/kg i.p.) administration (Aβ1-40+MDA7+AM630 group) to rats injected with β1-40 fibrils. MDA7 group and control group received bilateral intracerebral microinjection of artificial cerebrospinal fluid (130 mM NaCl, 2.6 mM KCl. 4.3 mM MgCl2 and 1.8 mM CaCl2) once and 15 mg/kg MDA7 or saline i.p. daily for 14 days, respectively. Intraperitoneal administration of AM630, MDA7 or saline started on the same day after intracerebral microinjection of Aβ1-40. All drugs were prepared coded. Decoding was performed at the end of all experiments.
Hippocampal slice preparation. Brain slices containing hippocampus were prepared. Brain slices used for electrophysiological recording were obtained from all rats (n=10-12 rats per group) that had been subjected to the Morris water maze test. All rats were anesthetized with pentobarbital and then euthanized by decapitation. […]
Whole-cell patch clamp recordings in hippocampal slices. […] The series resistance was optimally compensated by ≥70% and constantly monitored throughout the experiments. […] Excitatory postsynaptic currents (EPSCs) were recorded in the CA1 area in the presence of GABAA antagonist bicuculline (30 μM). The evoked EPSCs were filtered at 2 kHz, digitized at 10 kHz, and acquired and analyzed using Axograph X software. The amplitude of EPSCs was monitored for a baseline period of at least 15 min. […]

hCB1 = hCB1 (Homo sapiens, UniProt P21554); details: cited from earlier work
[1] = system: cognitive impairment induced by Aβ1-40; assay: Morris water maze test in rats microinjected with Aβ1-40 fibrils; type: in vivo, rat
Description: Animals and treatment protocol. All animal procedures were approved by the Animal Care and Use Committee of Cleveland Clinic. Animals were housed the Institutional Biological Rodent Unit on a 12/12 h light/dark cycle with water and food pellets available ad libitum. Adult male Sprague-Dawley (Charles River, Wilmington, Mass.) rats weighing 200-250 g were used, and all experiments were performed during the light cycle.
as §1
Microinjection of amyloid fibrils into the hippocampal CA1 area. Rats were anesthetized with sodium pentobarbital (45 mg/kg i.p.) and restrained in a stereotaxic apparatus. Aβ1-40 fibrils were formed as described previously. Chacon, et al., Mol Psychiatry 9(10), 953-61 (2004), Aβ1-40 fibrils (10 μg/3 μl) or 3 μl of artificial cerebrospinal fluid were injected stereotaxically and bilaterally into each hippocampus (coordinates; Bregma −3.5 mm anteroposterior, ±2.0 mm mediolateral, and −3.0 mm dorsoventral) using a 10 μl Hamilton syringe with a 27 G stainless steel needle at a rate of 0.5 μl/min. This experimental model has been used for studying AD. Ahmed, et al., Neuroscience 169(3), 1296-306 (2010).
Morris water maze test. A cohort of rats (n=10 per group) was tested 15 days after surgery as described by Chacon et al. (ibid). Testing was conducted in all groups at the same time of the day. The experimental apparatus consisted of a circular pool (120 cm in diameter, 45 cm high). An invisible platform (15 cm in diameter, 35 cm high) was placed 1.5 cm below the surface of the water. The water temperature was kept at 24-28° C. The pool was located in a test room, and many clues external to the maze were visible from the pool, which could be used by the rats for spatial orientation. The position of the cues was kept constant throughout the task. Each rat underwent four trials per day for five days. During each trial (memory acquisition), the rats were placed randomly at one of four fixed starting points and were allowed to swim for 120 s or until they escaped from the water by reaching the platform. The platform was located in the same position throughout the test in the middle of one quadrant. The start location was moved to a different quadrant in each trial so that no single start location was used in consecutive trials. In each training session, the latency to escape to the hidden platform was recorded. After the rats reached the platform, they were allowed to rest there for 20 seconds, and they then were removed from the pool. An inter-trial interval of at least 4 minutes was used to ensure that each rat's performance was not impaired by fatigue. After completing four trials, the rats were removed from the pool, dried and returned to their home cage. […]

Sequence of hCB1 (P21554 whole entry): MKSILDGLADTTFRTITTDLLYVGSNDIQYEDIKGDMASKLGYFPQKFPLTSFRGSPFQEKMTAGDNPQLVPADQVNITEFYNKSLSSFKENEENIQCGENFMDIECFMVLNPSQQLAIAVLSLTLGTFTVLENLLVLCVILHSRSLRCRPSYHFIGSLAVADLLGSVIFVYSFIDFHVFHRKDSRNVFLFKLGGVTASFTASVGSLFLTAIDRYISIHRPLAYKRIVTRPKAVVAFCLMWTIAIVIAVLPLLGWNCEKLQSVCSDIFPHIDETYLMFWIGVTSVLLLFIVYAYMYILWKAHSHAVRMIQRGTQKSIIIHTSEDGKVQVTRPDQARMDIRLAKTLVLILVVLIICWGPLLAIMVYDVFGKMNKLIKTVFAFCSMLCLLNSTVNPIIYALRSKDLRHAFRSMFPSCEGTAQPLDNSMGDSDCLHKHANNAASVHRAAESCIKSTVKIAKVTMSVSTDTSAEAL

For `CC1(Cc2ccccc2)COc2cc(C(=O)N3CCCCC3)ccc21` (stereo not drawn) [MDA7, 3-benzyl-3-methyl-2,3-dihydrobenzofuran-6-carboxylic acid-piperidine amide], the “average LTP” value (CA1 neurons; 30 min after induction) was 214.5±23.6%, the “average LTP” value (CA1 neurons; 60 min after induction) was 195.7±21.8% and the “induction of LTP, treatment alone” value (CA1 neurons; hippocampal slices of control rats (no Aβ1-40)) was “failed to significantly affect”. The “EC50 at hCB1” value (hCB1) was “not active”, the “escape latency / memory enhancement in the Morris water maze test” value ([1]; Aβ1-40 fibril-injected rats, 1.5 mg/kg i.p. daily for 14 days) was “did not result in any significant memory enhancement” and the “escape latency / memory enhancement in the Morris water maze test” value ([1]; Aβ1-40 fibril-injected rats, 5 mg/kg i.p. daily for 14 days) was “limited only to days 3 and 5”. The “escape latency in the Morris water maze test” value ([1]; Aβ1-40 fibril-injected rats, 15 mg/kg i.p. daily for 14 days, vs i.p. saline, days 3-5) was “significantly shorter escape latency”, the “probe trial, time spent in the target quadrant” value ([1]; Aβ1-40 fibril-injected rats, 15 mg/kg i.p. for 14 days, vs i.p. saline, day 6, 15 mg/kg) was “spent the longest time in the target quadrant; also recorded: significantly longer time in the target quadrant” and the “escape latency, treatment alone” value ([1]; rats microinjected with artificial cerebrospinal fluid, 15 mg/kg for 14 days vs saline i.p.) was “no significant difference”.
